Legend:
[1] = test system: A549-ACE2 infected with SARS-CoV-2; assay: morphology score (similarity to uninfected cells); higher = more like uninfected cells; details: 24 h
[2] = test system: A549-ACE2 infected with SARS-CoV-2; assay: cell count relative to DMSO; higher = less toxic; details: 24 h
Caco-2 [3] = assay: relative viability EC50 (midpoint between 100% and the lowest measured viability); higher = less toxic; details: 72 h
U2OS [4] = assay: as above; details: 72 h
Calu-3 [5] = assay: as above; details: 72 h
[6] = test system: A549-ACE2 infected with SARS-CoV-2; assay: SARS-CoV-2 infection rate relative to DMSO; higher = more infection; details: 24 h
Caco-2 [7] = assay: drug sensitivity score (DSS) for viability; higher = more toxic; extreme values may be limits of the assay; details: 72 h
HepG2 [8] = assay: as above; details: 72 h
Vero E6 [9] = assay: as above; details: 72 h
U2OS [10] = assay: as above; details: 72 h
Calu-3 [11] = assay: as above; details: 72 h
A549-ACE2 [12] = assay: drug-induced phospholipidosis relative to tamoxifen; higher = more phospholipidosis
Caco-2 [13] = assay: cell viability relative to DMSO; higher = less toxic; details: 72 h
HepG2 [14] = assay: as above; details: 72 h
Vero E6 [15] = assay: as above; details: 72 h
U2OS [16] = assay: as above; details: 72 h
Calu-3 [17] = assay: as above; details: 72 h
A549-ACE2 [18] = assay: phospholipidosis EC50; higher = less potent phospholipidosis inducer
HepG2 [19] = assay: relative viability EC50 (midpoint between 100% and the lowest measured viability); higher = less toxic; details: 72 h
Vero E6 [20] = assay: as above; details: 72 h

Oc1ccc2c3c1O[C@H]1c4c(c5ccccc5n4Cc4ccccc4)C[C@@]4(O)[C@@H](C2)N(CC2CC2)CC[C@]314 [N-benzylnaltrindole]
Details	SARS-CoV-2 infection rate [%]	cell count [%]	cell viability [%]	morphology score	phospholipidosis EC50 [µM]
A549-ACE2 [18], 24 h	–	–	–	–	2.62
A549-ACE2 [18], 48 h	–	–	–	–	4.61
A549-ACE2 [18], 72 h	–	–	–	–	6.76
Caco-2 [13], 1 nM	–	–	88.7	–	–
Caco-2 [13], 10 nM	–	–	99.7	–	–
Caco-2 [13], 100 nM	–	–	88.5	–	–
Caco-2 [13], 1000 nM	–	–	99	–	–
Caco-2 [13], 10000 nM	–	–	86.9	–	–
Calu-3 [17], 1 nM	–	–	96.9	–	–
Calu-3 [17], 10 nM	–	–	99.8	–	–
Calu-3 [17], 100 nM	–	–	106	–	–
Calu-3 [17], 1000 nM	–	–	100	–	–
Calu-3 [17], 10000 nM	–	–	38.9	–	–
HepG2 [14], 1 nM	–	–	102	–	–
HepG2 [14], 10 nM	–	–	98.9	–	–
HepG2 [14], 100 nM	–	–	103	–	–
HepG2 [14], 1000 nM	–	–	100	–	–
HepG2 [14], 10000 nM	–	–	54.8	–	–
U2OS [16], 1 nM	–	–	94.9	–	–
U2OS [16], 10 nM	–	–	102	–	–
U2OS [16], 100 nM	–	–	95.9	–	–
U2OS [16], 1000 nM	–	–	102	–	–
U2OS [16], 10000 nM	–	–	89.1	–	–
Vero E6 [15], 1 nM	–	–	100	–	–
Vero E6 [15], 10 nM	–	–	96	–	–
Vero E6 [15], 100 nM	–	–	95.1	–	–
Vero E6 [15], 1000 nM	–	–	96.2	–	–
Vero E6 [15], 10000 nM	–	–	70.1	–	–
[1], 0.1 µM	–	–	–	0.1	–
[1], 0.3 µM	–	–	–	0.1	–
[1], 1 µM	–	–	–	0.24	–
[1], 3 µM	–	–	–	0.47	–
[2], 0.1 µM	–	100	–	–	–
[2], 0.3 µM	–	101	–	–	–
[2], 1 µM	–	104	–	–	–
[2], 3 µM	–	108	–	–	–
[6], 0.1 µM	96	–	–	–	–
[6], 0.3 µM	94	–	–	–	–
[6], 1 µM	90	–	–	–	–
[6], 3 µM	69	–	–	–	–

Details	drug sensitivity score	relative viability EC50 [µM]
Caco-2 [3]	–	> 10
Caco-2 [7]	0	–
Calu-3 [5]	–	3.19
Calu-3 [11]	3.3	–
HepG2 [8]	2.3	–
U2OS [4]	–	> 10
U2OS [10]	0	–
Vero E6 [9]	1.9	–

drug-induced phospholipidosis [%], A549-ACE2 [12]
Details	0.3 µM	0.833333 µM	3.33333 µM	6.66667 µM	10 µM	30 µM
24 h	4.31	4.24	48.7	70.1	59	26.2
48 h	5.61	4.16	44.9	83.7	102	–
72 h	4.1	4.23	35.4	81.8	111	–

C[C@@H]1COCCN1c1cc(=O)n2c(n1)N(Cc1cncc(Cl)c1)[C@H](C(F)(F)F)CC2 [SAR405]
Details	SARS-CoV-2 infection rate, [6] [%]	cell count, [2] [%]	cell viability, Caco-2 [13] [%]	cell viability, Calu-3 [17] [%]	cell viability, HepG2 [14] [%]	cell viability, U2OS [16] [%]	cell viability, Vero E6 [15] [%]	morphology score, [1]
1 nM	–	–	84.5	99.7	98.1	97.4	105	–
10 nM	–	–	91.1	97.3	105	96.8	108	–
0.1 µM	94	105	–	–	–	–	–	0.11
100 nM	–	–	80.6	109	101	99.2	104	–
0.3 µM	88	102	–	–	–	–	–	0.09
1 µM	58	114	–	–	–	–	–	0.48
1000 nM	–	–	59.7	104	76.9	96.3	96.9	–
3 µM	31	104	–	–	–	–	–	0.5
10000 nM	–	–	76.3	88.6	55.5	68.9	63.8	–

Details	drug sensitivity score	relative viability EC50 [µM]
Caco-2 [7]	8.1	–
Calu-3 [5]	–	> 10
Calu-3 [11]	0	–
HepG2 [8]	5.2	–
U2OS [10]	2	–
Vero E6 [9]	2.2	–

drug-induced phospholipidosis [%], A549-ACE2 [12]
Details	0.3 µM	0.833333 µM	3.33333 µM	6.66667 µM	10 µM	30 µM
24 h	-2.02	-6.84	10.5	23.4	28.8	39.3
48 h	1.08	-10.5	7.2	36.3	–	–
72 h	3.73	-7.79	5.27	–	–	–

C=C1C(=O)O[C@@H]2C[C@@]3(C)CCC[C@H](C)C3=C[C@H]12 [alantolactone]
Details	SARS-CoV-2 infection rate, [6] [%]	cell count, [2] [%]	cell viability, Caco-2 [13] [%]	cell viability, HepG2 [14] [%]	cell viability, U2OS [16] [%]	cell viability, Vero E6 [15] [%]	morphology score, [1]
1 nM	–	–	94.9	94.8	99.2	94.7	–
10 nM	–	–	99	102	96.4	95.8	–
100 nM	–	–	101	106	101	95.8	–
0.3 µM	104	100	–	–	–	–	0.1
1000 nM	–	–	99.8	104	96.4	96.8	–
3 µM	92	98	–	–	–	–	-0.12
10 µM	91	97	–	–	–	–	-0.07
10000 nM	–	–	89.7	117	96.6	101	–
30 µM	35	9	–	–	–	–	0.21

Details	drug sensitivity score	relative viability EC50 [µM]
Caco-2 [3]	–	> 10
Caco-2 [7]	0	–
HepG2 [8]	0	–
HepG2 [19]	–	> 10
U2OS [4]	–	> 10
U2OS [10]	0	–
Vero E6 [9]	0	–
Vero E6 [20]	–	> 10

drug-induced phospholipidosis [%], A549-ACE2 [12]
Details	0.3 µM	0.833333 µM	3.33333 µM	6.66667 µM	10 µM	30 µM
24 h	0.44	-0.52	-2.33	-1.69	-1.05	3.99
48 h	0.11	-0.81	-1.92	-1	0.04	3.39
72 h	2.31	-0.225	-1.83	-1.58	0.848	3.9

O=C(O)CCCCCCCC(=O)O [azelaic-acid]
Details	SARS-CoV-2 infection rate, [6] [%]	cell count, [2] [%]	cell viability, Caco-2 [13] [%]	cell viability, HepG2 [14] [%]	cell viability, U2OS [16] [%]	morphology score, [1]
1 nM	–	–	105	102	101	–
10 nM	–	–	97	92.3	103	–
100 nM	–	–	103	115	99.4	–
0.3 µM	94	103	–	–	–	0.2
1000 nM	–	–	105	96.4	106	–
3 µM	100	95	–	–	–	-0.03
10 µM	98	102	–	–	–	0.06
10000 nM	–	–	95.6	99	97.7	–
30 µM	103	102	–	–	–	0.01

Details	drug sensitivity score	relative viability EC50 [µM]
Caco-2 [3]	–	> 10
Caco-2 [7]	0	–
HepG2 [8]	0	–
HepG2 [19]	–	> 10
U2OS [4]	–	> 10
U2OS [10]	0	–

drug-induced phospholipidosis [%], A549-ACE2 [12]
Details	0.3 µM	0.833333 µM	3.33333 µM	6.66667 µM	10 µM	30 µM
24 h	-0.21	-0.53	-0.9	-0.71	-1.82	0.53
48 h	0.97	-0.84	-1.1	0.62	-0.42	2.28
72 h	3.56	0.0211	0.507	0.701	1.19	4.29
